Measurements taken from PubChem BioAssay (NCI).
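Growth conditions: 96-well plates. Treatment: test compound, 48 hours, 5 concentrations. Analysis: linear interpolation between bracketing concentrations; unreached endpoints set to highest concentration. Definition used: TGI = concentration required for complete inhibition of growth.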

Assays:
Experiment in all cases: NCI-60 cell line screen, 48 h
[1] = tested on: OVCAR-3 ovarian
[2] = tested on: HOP-62 NSCLC
[3] = tested on: ACHN renal
[4] = tested on: U251 CNS
[5] = tested on: KM20L2 colon
[6] = tested on: MOLT-4 leukemia
[7] = tested on: SK-MEL-5 melanoma
[8] = tested on: HOP-18 NSCLC
[9] = tested on: DMS 273 small cell lung
[10] = tested on: MALME-3M melanoma
[11] = tested on: NCI-H460 lung
[12] = tested on: RXF 393 renal
[13] = tested on: EKVX NSCLC
[14] = tested on: M14 melanoma
[15] = tested on: COLO 205 colon
[16] = tested on: K-562 leukemia
[17] = tested on: UACC-62 melanoma
[18] = tested on: HL-60(TB) leukemia
[19] = tested on: HCT-15 colon
[20] = tested on: DLD-1 colon
[21] = tested on: A498 renal
[22] = tested on: HOP-92 NSCLC
[23] = tested on: IGROV1 ovarian
[24] = tested on: SNB-78 CNS
[25] = tested on: HT29 colon
[26] = tested on: NCI-H23 lung
[27] = tested on: SF-539 CNS
[28] = tested on: SF-268 CNS
[29] = tested on: A549 NSCLC
[30] = tested on: SK-MEL-28 melanoma
[31] = tested on: SW-620 colon
[32] = tested on: SK-MEL-2 melanoma
[33] = tested on: DMS 114 small cell lung
[34] = tested on: CAKI-1 renal
[35] = tested on: SN12C renal
[36] = tested on: HCT-116 colon
[37] = tested on: OVCAR-8 ovarian
[38] = tested on: NCI-H226 lung
[39] = tested on: M19-MEL melanoma
[40] = tested on: CCRF-CEM leukemia
[41] = tested on: NCI-H522 lung
[42] = tested on: LOX IMVI melanoma
[43] = tested on: RPMI-8226 leukemia
[44] = tested on: KM12 colon
[45] = tested on: LXFL 529 NSCLC
[46] = tested on: UACC-257 melanoma
[47] = tested on: UO-31 renal
[48] = tested on: 786-0 renal
[49] = tested on: SF-295 CNS
[50] = tested on: SK-OV-3 ovarian
[51] = tested on: SNB-75 CNS
[52] = tested on: OVCAR-5 ovarian
[53] = tested on: SNB-19 CNS
[54] = tested on: OVCAR-4 ovarian
[55] = tested on: TK-10 renal
[56] = tested on: HCC-2998 colon
[57] = tested on: SR leukemia
[58] = tested on: MCF7 breast
[59] = tested on: PC-3 prostate
[60] = tested on: DU-145 prostate
[61] = tested on: T-47D breast
[62] = tested on: MDA-MB-435
[63] = tested on: MDA-N
[64] = tested on: BT-549 breast
[65] = tested on: HS 578T breast
[66] = tested on: MDA-MB-231 breast
[67] = tested on: NCI/ADR-RES ovarian

Structure (SMILES): c1ccc2c(c1)OCCOCCOc1ccccc1OCCO2
- TGI [1]: 70 µM
- TGI [2]: > 100 µM
- TGI [3]: > 100 µM
- TGI [4]: > 100 µM
- TGI [5]: 87.7 µM
- TGI [6]: > 100 µM
- TGI [7]: > 100 µM
- TGI [8]: > 100 µM
- TGI [9]: > 100 µM
- TGI [10]: 88.2 µM
- TGI [11]: > 100 µM
- TGI [12]: > 100 µM
- TGI [13]: > 100 µM
- TGI [14]: > 100 µM
- TGI [15]: > 100 µM
- TGI [16]: > 100 µM
- TGI [17]: > 100 µM
- TGI [18]: 69.1 µM
- TGI [19]: > 100 µM
- TGI [20]: > 100 µM
- TGI [21]: > 100 µM
- TGI [22]: > 100 µM
- TGI [23]: > 100 µM
- TGI [24]: > 100 µM
- TGI [25]: > 100 µM
- TGI [26]: > 100 µM
- TGI [27]: > 100 µM
- TGI [28]: > 100 µM
- TGI [29]: > 100 µM
- TGI [30]: > 100 µM
- TGI [31]: 77.1 µM
- TGI [32]: > 100 µM
- TGI [33]: > 100 µM
- TGI [34]: > 100 µM
- TGI [35]: > 100 µM
- TGI [36]: > 100 µM
- TGI [37]: > 100 µM
- TGI [38]: > 100 µM
- TGI [39]: > 100 µM
- TGI [40]: > 100 µM
- TGI [41]: > 100 µM
- TGI [42]: > 100 µM
- TGI [43]: 70.2 µM
- TGI [44]: > 100 µM
- TGI [45]: > 100 µM
- TGI [46]: > 100 µM
- TGI [47]: > 100 µM
- TGI [48]: > 100 µM
- TGI [49]: > 100 µM
- TGI [50]: > 100 µM
- TGI [51]: > 100 µM
- TGI [52]: > 100 µM
- TGI [53]: > 100 µM
- TGI [54]: > 100 µM
- TGI [55]: > 100 µM

Structure (SMILES): Nc1nc(SCc2ccccc2Cl)c2[nH]cnc2n1
- TGI [1]: > 100 µM
- TGI [2]: > 100 µM
- TGI [3]: > 100 µM
- TGI [4]: > 100 µM
- TGI [5]: > 100 µM
- TGI [6]: > 100 µM
- TGI [7]: > 100 µM
- TGI [9]: > 100 µM
- TGI [56]: > 100 µM
- TGI [10]: > 100 µM
- TGI [11]: > 100 µM
- TGI [12]: > 100 µM
- TGI [13]: > 100 µM
- TGI [14]: > 100 µM
- TGI [15]: > 100 µM
- TGI [16]: > 100 µM
- TGI [17]: > 100 µM
- TGI [18]: > 100 µM
- TGI [19]: > 100 µM
- TGI [20]: > 100 µM
- TGI [21]: 73.1 µM
- TGI [23]: > 100 µM
- TGI [24]: > 100 µM
- TGI [26]: > 100 µM
- TGI [27]: > 100 µM
- TGI [28]: > 100 µM
- TGI [29]: > 100 µM
- TGI [30]: > 100 µM
- TGI [31]: > 100 µM
- TGI [32]: > 100 µM
- TGI [33]: > 100 µM
- TGI [35]: > 100 µM
- TGI [36]: > 100 µM
- TGI [37]: > 100 µM
- TGI [39]: > 100 µM
- TGI [40]: > 100 µM
- TGI [57]: > 100 µM
- TGI [41]: > 100 µM
- TGI [42]: > 100 µM
- TGI [43]: > 100 µM
- TGI [44]: > 100 µM
- TGI [45]: > 100 µM
- TGI [46]: > 100 µM
- TGI [47]: > 100 µM
- TGI [49]: > 100 µM
- TGI [50]: > 100 µM
- TGI [52]: > 100 µM
- TGI [53]: > 100 µM
- TGI [55]: 67 µM

Structure (SMILES): COc1cccc(CC(=O)N2CCN(CCCc3ccccc3)CC2)c1
- TGI [1]: > 100 µM
- TGI [2]: > 100 µM
- TGI [3]: > 100 µM
- TGI [4]: > 100 µM
- TGI [6]: > 100 µM
- TGI [7]: 77.1 µM
- TGI [56]: > 100 µM
- TGI [58]: > 100 µM
- TGI [11]: > 100 µM
- TGI [13]: > 100 µM
- TGI [59]: > 100 µM
- TGI [14]: > 100 µM
- TGI [15]: > 100 µM
- TGI [60]: > 100 µM
- TGI [16]: > 100 µM
- TGI [17]: > 100 µM
- TGI [61]: 89.9 µM
- TGI [18]: > 100 µM
- TGI [19]: > 100 µM
- TGI [21]: > 100 µM
- TGI [22]: > 100 µM
- TGI [23]: > 100 µM
- TGI [62]: > 100 µM
- TGI [25]: > 100 µM
- TGI [63]: > 100 µM
- TGI [26]: > 100 µM
- TGI [27]: > 100 µM
- TGI [28]: > 100 µM
- TGI [29]: > 100 µM
- TGI [30]: > 100 µM
- TGI [31]: > 100 µM
- TGI [32]: > 100 µM
- TGI [64]: > 100 µM
- TGI [34]: > 100 µM
- TGI [35]: > 100 µM
- TGI [36]: > 100 µM
- TGI [37]: > 100 µM
- TGI [38]: > 100 µM
- TGI [65]: > 100 µM
- TGI [40]: > 100 µM
- TGI [57]: > 100 µM
- TGI [66]: > 100 µM
- TGI [41]: > 100 µM
- TGI [42]: > 100 µM
- TGI [43]: > 100 µM
- TGI [44]: > 100 µM
- TGI [46]: > 100 µM
- TGI [47]: > 100 µM
- TGI [67]: 94.3 µM
- TGI [48]: > 100 µM
- TGI [49]: > 100 µM
- TGI [50]: > 100 µM
- TGI [52]: > 100 µM
- TGI [53]: > 100 µM
- TGI [54]: > 100 µM
- TGI [55]: > 100 µM
